These results are taken from patent US9422283B2, “Salts and polymorphs of a substituted imidazopyridinyl-aminopyridine compound” (ArQule, Inc., priority 2014, dated 2016).

What all share (type): physicochemical
Series [1] in a line: Thermodynamic aqueous solubility. The conditions noted are these: water, 25 °C, thermodynamic from solid. As for the experimental part: Aqueous solubility was determined by suspending sufficient compound in water to give a maximum final concentration of ≧10 mg/ml of the parent free-form of the compound. The suspension was equilibrated at 25° C. for 24 hours then the pH was measured. The suspension was then filtered through a glass fiber C filter. The filtrate was then diluted by an appropriate factor e.g., 101. Quantitation was by HPLC with reference to a standard solution of approximately 0.25 mg/ml in DMSO. Different volumes of the standard, diluted and undiluted sample solutions were injected. The solubility was calculated using the peak areas determined by integration of the peak found at the same retention time as the principal peak in the standard injection.
Analysis was performed on an Agilent HP1100 series system equipped with a diode array detector and using ChemStation software vB.02.01-SR1.

Series [2] in a line: Gravimetric Vapor Sorption (GVS). As to the method:
Sorption isotherms were obtained using a SMS DVS Intrinsic moisture sorption analyzer, controlled by DVS Intrinsic Control software v1.0.0.30. The sample temperature was maintained at 25° C. by the instrument controls. The humidity was controlled by mixing streams of dry and wet nitrogen, with a total flow rate of 200 ml/min. The relative humidity was measured by a calibrated Rotronic probe (dynamic range of 1.0-100% RH), located near the sample. The weight change, (mass relaxation) of the sample as a function of % RH was constantly monitored by the microbalance (accuracy ±0.005 mg).
Typically 5-20 mg of sample was placed in a tared mesh stainless steel basket under ambient conditions. The sample was loaded and unloaded at 40% RH and 25° C. (typical room conditions). A moisture sorption isotherm was performed as outlined below (4 scans giving 2 complete cycles). The standard isotherm was performed at 25° C. at 10% RH intervals over a 0-90% RH range. Data analysis was undertaken in Microsoft Excel using DVS Analysis Suite v6.0.0.7.
The sample was recovered after completion of the isotherm and re-analysed by XRPD. 7.2. Dynamic Vapour Sorption (DVS)

Series [3] is described as follows: Storage stability of free base and salts (XRPD, IC, 1H NMR pre- and post-storage).

The structures appear in SMILES notation. Structures can show the parent of a compound that is named as a salt.

As usually defined, the solubility is how much of the substance goes into solution per volume. A higher solubility goes with a readily soluble substance. `Nc1ncccc1-c1nc2ccc(-c3ccccc3)nc2n1-c1ccc(C2(N)CCC2)cc1` [Compound A HCl salt, 3-(3-(4-(1-aminocyclobutyl)phenyl)-5-phenyl-3H-imidazo[4,5-b]pyridin-2-yl)pyridin-2-amine] had a solubility at 24 h in series [1] (pH 1.2, max conc. 50 mg/ml) of 8300 µg/mL. Further, the GVS water uptake result in series [2] (partial run, from 40-90% RH) is “partial run: ~18 wt % water uptake”. Besides, the “HCl content by IC after storage” value in series [3] (40° C. and 75% RH, 7 days, 2.2 equi. HCl before storage) is “IC converted to 1.6 equi. HCl”.
Take `Nc1ncccc1-c1nc2ccc(-c3ccccc3)nc2n1-c1ccc(C2(N)CCC2)cc1` [Compound A mesylate salt, 3-(3-(4-(1-aminocyclobutyl)phenyl)-5-phenyl-3H-imidazo[4,5-b]pyridin-2-yl)pyridin-2-amine]: the solubility at 5 min in series [1] (in 5 min, pH 2.1) was greater than 50000 µg/mL. Further, in series [2], the “change in XRPD after GVS” value is “No change in XRPD after GVS”. Moreover, in series [3] (40° C. and 75% RH, 7 days, XRPD and 1H NMR), the change after storage entry was “No change in XRPD or ^1H NMR”.
`Nc1ncccc1-c1nc2ccc(-c3ccccc3)nc2n1-c1ccc(C2(N)CCC2)cc1` [Form 1, 3-(3-(4-(1-aminocyclobutyl)phenyl)-5-phenyl-3H-imidazo[4,5-b]pyridin-2-yl)pyridin-2-amine]: the “water uptake (GVS)” value in series [2] (0-90% RH) was < 0.8 %, w/w. Further, the “water absorption upon storage” value in series [2] (FIG. 5 GVS isotherm) is “Minimal water absorption”. Moreover, in series [3] (25° C. and 0-96% RH, XRPD), the stability under storage entry is “stable”. Moreover, the “polymorphic form change on storage” value in series [3] (40° C. and 75% RH, one week, XRPD) was “transformed to Form 2”.
